According to PMC10384246, “Discovery of New Uracil and Thiouracil Derivatives as Potential HDAC Inhibitors” (Pharmaceuticals, 2023):
Several values for one entry are separate records, joined by “and”; a condition that tells them apart may be missing. Equal values may be shown once.

Experiments:
[1] = system: MCF-7 (human breast cancer cell line); assay: MTT anti-proliferative assay, MCF-7; type: cell-based; details: MCF7, MCF-7, mean of at least three experiments, read-out: Cytotoxicity IC50 MCF-7
Method: (§1) Sorafenib was used as a reference drug.
(§2) Anti-proliferative activity activities were tested using MTT assay as described in Supplementary Materials. […]
(§3) S2.1. In vitro anti-proliferative activities
(§4) The in vitro antiproliferative activities of all the synthesized compounds against three human tumor cell lines namely, MCF-7 (human breast cancer cell line), HepG2 (human liver […]
(§5) in the literature, using MTT assay protocol. Sorafenib was used in this test as a positive control.
(§6) The anti-proliferative activity was assessed quantitatively as follows.
(§7) Human cancer cell lines were seeded in 96-well plates at a density of 3-8 × 10^3 cells/well.
(§8) Next, the cells were incubated for 12 h in a 5% CO2 incubator at 37 °C. Then, for each well, the growth medium was exchanged with 0.1 ml of fresh medium containing graded concentrations of the test compounds or equal DMSO. Then 10 μl MTT solution ([…]) was added to each well, and the cells were incubated for additional 4 h. The crystals of MTT-formazan were dissolved in 100 μl of DMSO; the absorbance of each well was measured at 490 nm using an automatic ELISA reader system (TECAN, CHE). The IC50 values were calculated using the nonlinear regression fitting models (Graph Pad, Prism Version 5). The data represented the mean of three independent experiments in triplicate and were expressed as means ± SD. The IC50 value was […]
(§9) defined as the concentration at which 50% of the cells could survive. […]

[2] = system: HepG2 (human liver carcinoma cell line); assay: MTT anti-proliferative assay, HepG2; type: cell-based; details: HepG2, mean of at least three experiments, read-out: Cytotoxicity IC50 HepG-2
Method: as §1, §2, §3, §4, §5, §6, §7, §8, §9

[3] = system: colorectal carcinoma (HCT-116); assay: MTT anti-proliferative assay, HCT-116; type: cell-based; details: Homo sapiens, HCT-116, read-out: Cytotoxicity IC50 HCT-116
Method: as §1, §2, §3, §4, §5, §6, §7, §8, §9

HDAC1 = HDAC1 (Homo sapiens, UniProt Q13547); assay: In vitro HDAC1 inhibitory assay; type: biochemical
HDAC4 = HDAC4 (Homo sapiens, UniProt P56524); assay: In vitro HDAC4 inhibitory assay; type: biochemical
Chain of HDAC4 (P56524 whole entry): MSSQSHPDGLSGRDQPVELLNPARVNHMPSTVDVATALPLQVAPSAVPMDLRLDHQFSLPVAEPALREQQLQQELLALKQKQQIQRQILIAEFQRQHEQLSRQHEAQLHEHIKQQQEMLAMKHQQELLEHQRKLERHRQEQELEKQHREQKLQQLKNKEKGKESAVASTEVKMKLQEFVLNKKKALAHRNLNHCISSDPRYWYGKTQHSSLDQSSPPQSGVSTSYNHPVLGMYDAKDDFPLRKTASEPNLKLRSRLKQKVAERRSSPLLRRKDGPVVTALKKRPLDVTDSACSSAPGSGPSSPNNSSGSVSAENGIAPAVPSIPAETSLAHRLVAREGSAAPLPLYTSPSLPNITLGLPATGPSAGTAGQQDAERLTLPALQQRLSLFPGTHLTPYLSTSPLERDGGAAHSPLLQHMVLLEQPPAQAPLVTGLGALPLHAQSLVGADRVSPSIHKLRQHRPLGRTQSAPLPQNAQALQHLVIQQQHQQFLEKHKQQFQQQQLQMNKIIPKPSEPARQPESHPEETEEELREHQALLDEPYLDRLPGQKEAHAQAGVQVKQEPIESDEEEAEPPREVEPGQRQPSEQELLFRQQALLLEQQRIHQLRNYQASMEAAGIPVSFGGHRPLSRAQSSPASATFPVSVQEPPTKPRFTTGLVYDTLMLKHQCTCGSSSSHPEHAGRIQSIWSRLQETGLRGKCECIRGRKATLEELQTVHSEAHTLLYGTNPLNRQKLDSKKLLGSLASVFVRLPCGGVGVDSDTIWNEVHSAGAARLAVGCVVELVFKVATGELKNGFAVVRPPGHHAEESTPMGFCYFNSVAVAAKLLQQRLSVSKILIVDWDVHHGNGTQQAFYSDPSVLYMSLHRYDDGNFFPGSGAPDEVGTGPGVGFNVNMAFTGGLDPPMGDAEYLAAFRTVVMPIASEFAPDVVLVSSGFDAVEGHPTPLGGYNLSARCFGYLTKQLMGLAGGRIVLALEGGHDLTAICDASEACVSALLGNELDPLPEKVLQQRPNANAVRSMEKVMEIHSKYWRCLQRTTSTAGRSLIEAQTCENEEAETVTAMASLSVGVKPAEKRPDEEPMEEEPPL

Chain of HDAC1 (Q13547 whole entry): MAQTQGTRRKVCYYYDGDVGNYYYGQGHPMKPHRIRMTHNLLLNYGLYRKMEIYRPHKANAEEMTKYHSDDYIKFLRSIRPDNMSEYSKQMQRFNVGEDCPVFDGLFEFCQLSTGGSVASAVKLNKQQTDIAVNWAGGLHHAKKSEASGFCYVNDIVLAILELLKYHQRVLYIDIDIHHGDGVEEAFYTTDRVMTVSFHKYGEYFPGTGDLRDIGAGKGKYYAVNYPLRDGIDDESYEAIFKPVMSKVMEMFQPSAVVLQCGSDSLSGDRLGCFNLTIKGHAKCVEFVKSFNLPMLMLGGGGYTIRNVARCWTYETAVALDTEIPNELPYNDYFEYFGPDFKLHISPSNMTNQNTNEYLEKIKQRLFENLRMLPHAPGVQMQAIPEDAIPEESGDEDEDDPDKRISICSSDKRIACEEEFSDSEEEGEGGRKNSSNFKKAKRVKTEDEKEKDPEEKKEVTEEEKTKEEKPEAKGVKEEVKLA

| Compound | IC50 (HDAC1) | IC50 (HDAC4) [µM] | melting point [°C] | IC50 [1] [µM] | IC50 [2] [µM] | IC50 [3] [µM] |
| --- | --- | --- | --- | --- | --- | --- |
| CCn1c(N)c(C(c2cccs2)c2c(N)n(CC)c(=S)[nH]c2=O)c(=O)[nH]c1=S [Compound 5g, 5,5′-(Thiophen-2-ylmethylene)bis(6-amino-1-ethyl-2-thioxo-2,3-dihydropyrimidin-4(1H)-one)] | – | – | 271 to 272 | 21 ± 2.2 | 33 ± 3.8 | 68 ± 1.8 |
| CCCn1c(N)c(Cc2c(N)n(CCC)c(=O)[nH]c2=O)c(=O)[nH]c1=O [Compound 5h, 5,5′-Methylenebis(6-amino-1-propylpyrimidine-2,4(1H,3H)-dione)] | – | – | – | 88 ± 2.5 | 52 ± 3.2 | 91 ± 1.9 |
| CCCn1c(N)c(C(c2ccccc2)c2c(N)n(CCC)c(=O)[nH]c2=O)c(=O)[nH]c1=O [Compound 5i, 5,5′-(Phenylmethylene)bis(6-amino-1-propylpyrimidine-2,4(1H,3H)-dione)] | 0.342 µM and 0.352 µM | 19.5 | 294 to 295 | 261 ± 2.5 | 4 ± 1 | 64 ± 2.1 |
| CCCn1c(N)c(C(c2ccc(C)cc2)c2c(N)n(CCC)c(=O)[nH]c2=O)c(=O)[nH]c1=O [Compound 5j, 5,5′-(p-Tolylmethylene)bis(6-amino-1-propylpyrimidine-2,4(1H,3H)-dione)] | – | – | 286 to 287 | 71 ± 2 | 38 ± 1.8 | 400 ± 2.4 |
| CCCn1c(N)c(C(c2ccc(Cl)cc2Cl)c2c(N)n(CCC)c(=O)[nH]c2=O)c(=O)[nH]c1=O [Compound 5k, 5,5′-((2,4-Dichlorophenyl)methylene)bis(6-amino-1-propylpyrimidine-2,4(1H,3H)-dione)] | 0.464 µM | 13 | 285 to 286 | 242 ± 2 | 5 ± 2 | 80 ± 2.6 |
| CCCn1c(N)c(C(c2ccc(OC)cc2)c2c(N)n(CCC)c(=O)[nH]c2=O)c(=O)[nH]c1=O [Compound 5l, 5,5′-((4-Methoxyphenyl)methylene)bis(6-amino-1-propylpyrimidine-2,4(1H,3H)-dione)] | – | – | 289 to 290 | 381 ± 1.5 | 31 ± 2 | 83 ± 1.9 |
| CCn1c2c(c(=O)[nH]c1=S)C(c1ccccc1)c1c(n(CC)c(=S)[nH]c1=O)N2 [Compound 6a, 1,9-Diethyl-5-phenyl-2,8-dithioxo-2,3,5,8,9,10-hexahydropyrido[2,3-d:6,5-d′]dipyrimidine-4,6(1H,7H)-dione] | – | – | 255 to 256 | 333 ± 2.9 | 220 ± 3 | 291 ± 3.5 |
| CCn1c2c(c(=O)[nH]c1=S)C(c1ccc([N+](=O)[O-])cc1)c1c(n(CC)c(=S)[nH]c1=O)N2 [Compound 6b, 1,9-Diethyl-5-(4-nitrophenyl)-2,8-dithioxo-2,3,5,8,9,10-hexahydropyrido[2,3-d:6,5-d′]dipyrimidine-4,6(1H,7H)-dione] | – | – | 251 to 252 | 577 ± 20 | 184 ± 3.7 | 299 ± 2 |
| CCCn1c2c(c(=O)[nH]c1=O)C(c1ccc(OC)cc1)c1c(n(CCC)c(=O)[nH]c1=O)N2 [Compound 6c, 5-(4-Methoxyphenyl)-1,9-dipropyl-5,10-dihydropyrido[2,3-d:6,5-d′]dipyrimidine-2,4,6,8(1H,3H,7H,9H)-tetraone] | – | – | 180 to 181 | 435 ± 4.3 | 114 ± 2.2 | 466 ± 4.6 |
| CCCn1c2c(c(=O)[nH]c1=O)Cc1c(n(CCC)c(=O)[nH]c1=O)N2 [Compound 6d, 1,9-Dipropyl-5,10-dihydropyrido[2,3-d:6,5-d′]dipyrimidine-2,4,6,8 (1H,3H,7H,9H)-tetraone] | – | – | – | 413 ± 1.3 | 168 ± 1.5 | 361 ± 2 |
| CCn1c(=S)[nH]c(=O)c2c(-c3ccc(Cl)cc3)c3c(=O)[nH]c(=S)n(CC)c3nc21 [Compound 7a, 5-(4-Chlorophenyl)-1,9-diethyl-2,8-dithioxo-2,3,8,9-tetrahydropyrido[2,3-d:6,5-d′]dipyrimidine-4,6(1H,7H)-dione] | – | – | 224 to 225 | 472 ± 3.2 | 189 ± 4.8 | 361 ± 1.9 |
| CCn1c(=S)[nH]c(=O)c2c(-c3ccc(OC)cc3)c3c(=O)[nH]c(=S)n(CC)c3nc21 [Compound 7b, 1,9-Diethyl-5-(4-methoxyphenyl)-2,8-dithioxo-2,3,8,9-tetrahydropyrido[2,3-d:6,5-d′]dipyrimidine-4,6(1H,7H)-dione] | – | – | 221 | 871 ± 3.2 | 173 ± 4.5 | 301 ± 3.4 |
| CCn1c(=S)[nH]c(=O)c2c(-c3cccs3)c3c(=O)[nH]c(=S)n(CC)c3nc21 [Compound 7c, 1,9-Diethyl-5-(thiophen-2-yl)-2,8-dithioxo-2,3,8,9-tetrahydropyrido[2,3-d:6,5-d′]dipyrimidine-4,6(1H,7H)-dione] | – | – | 216 to 217 | 450 ± 2.2 | 221 ± 2.5 | 243 ± 2.2 |
| CNC(=O)c1cc(Oc2ccc(NC(=O)Nc3ccc(Cl)c(C(F)(F)F)c3)cc2)ccn1 [Sorafenib, reference compound] | – | – | – | 141 ± 3 | 17 ± 2.3 | 177 ± 0.9 |

Further lines, with some results ahead:

| IC50 (HDAC1) | IC50 (HDAC4) [µM] | melting point [°C] | Compound | IC50 [1] [µM] | IC50 [2] [µM] | IC50 [3] [µM] |
| --- | --- | --- | --- | --- | --- | --- |
| 3.11 µM | 12.2 | > 300 | CCn1c(N)c(C(c2ccccc2)c2c(N)n(CC)c(=S)[nH]c2=O)c(=O)[nH]c1=S [Compound 5a, 5,5′-(Phenylmethylene)bis(6-amino-1-ethyl-2-thioxo-2,3-dihydropyrimidin-4(1H)-one)] | 11 ± 1.6 | 39 ± 2.5 | 88 ± 2.4 |
| 2.27 µM | 18 | 239 to 240 | CCn1c(N)c(C(c2ccc(C)cc2)c2c(N)n(CC)c(=S)[nH]c2=O)c(=O)[nH]c1=S [Compound 5b, 5,5′-(p-Tolylmethylene)bis(6-amino-1-ethyl-2-thioxo-2,3-dihydropyrimidin-4(1H)-one)] | 55 ± 2.8 | 51 ± 4 | 21 ± 2.4 |
| – | – | > 300 | CCn1c(N)c(C(c2ccc(Cl)cc2)c2c(N)n(CC)c(=S)[nH]c2=O)c(=O)[nH]c1=S [Compound 5c, 5,5′-((4-Chlorophenyl)methylene)bis(6-amino-1-ethyl-2-thioxo-2,3-dihydropyrimidin-4(1H)-one)] | 77 ± 2.3 | 89 ± 2.4 | 97 ± 1.2 |
| – | – | 272 to 273 | CCn1c(N)c(C(c2ccc(Cl)cc2Cl)c2c(N)n(CC)c(=S)[nH]c2=O)c(=O)[nH]c1=S [Compound 5d, 5,5′-((2,4-Dichlorophenyl)methylene)bis(6-amino-1-ethyl-2-thioxo-2,3-dihydropyrimidin-4(1H)-one)] | 62 ± 2.1 | 40 ± 2.7 | 281 ± 2.1 |
| – | – | 260 to 261 | CCn1c(N)c(C(c2ccc(OC)cc2)c2c(N)n(CC)c(=S)[nH]c2=O)c(=O)[nH]c1=S [Compound 5e, 5,5′-((4-Methoxyphenyl)methylene)bis(6-amino-1-ethyl-2-thioxo-2,3-dihydropyrimidin-4(1H)-one)] | 60 ± 0.49 | 42 ± 2 | 90 ± 3 |
| 4 µM | 12.2 | 274 to 275 | CCn1c(N)c(C(c2ccc([N+](=O)[O-])cc2)c2c(N)n(CC)c(=S)[nH]c2=O)c(=O)[nH]c1=S [Compound 5f, 5,5′-((4-Nitrophenyl)methylene)bis(6-amino-1-ethyl-2-thioxo-2,3-dihydropyrimidin-4(1H)-one)] | 9.3 ± 3.4 | 49 ± 0.17 | 71 ± 2.1 |
